From paper PMC9057582, “HIF inhibitor 32-134D eradicates murine hepatocellular carcinoma in combination with anti-PD1 therapy” (The Journal of Clinical Investigation, 2022)

Experiments:
Hep3B tumor xenograft = assay: Analysis of Hep3B xenograft tumors (immunoblot, RT-qPCR, ELISA, CD31 immunohistochemistry); format: in vivo, nude (nu/nu) mice
Source text: Figure 2 Effect of 32-134D on Hep3B tumor xenograft growth and vascularization. (A) Female nude mice received a subcutaneous injection of […] Hep3B cells. When tumors reached a volume of 150 mm^3 (designated treatment day 1), the mice were randomized to receive a daily intraperitoneal injection of 32-134D at a dose of 0 (blue), 20 (black), 40 (red), or 80 (green) mg/kg. Data are presented as mean tumor volume (± SEM; n = 4 each). **P < 0.01, ***P < 0.001 (ANOVA with Bonferroni’s post hoc test). (B) Gross pathology of tumors harvested from vehicle-treated (top panel) and 32-134D–treated (bottom panel) mice. (C) Nuclear extracts prepared from tumors were assayed by immunoblotting using antibodies against the indicated proteins. (D) Total RNA was isolated from tumor tissue and analyzed by RT-qPCR using primers specific for the indicated mRNAs and results (mean ± SEM, n = 4) were normalized to the mean value for tumors from vehicle-treated mice. (E) ELISA for the indicated proteins was performed using aliquots of tumor lysates (mean ± SEM; n = 3–4 tumors each). *P < 0.05 (Mann-Whitney test). (F) Formalin-fixed and paraffin-embedded tumor sections were analyzed by immunohistochemistry using an antibody against CD31 to identify vascular endothelial cells. Scale bar: 100 μm. The total CD31^+ vessel area per field was quantified using ImageJ (mean ± SEM; n = 4 tumors with 5 sections per tumor). *P < 0.05 (Student’s t test).
Intratumoral HIF-1β protein levels were not affected by treatment with 32-134D (Supplemental Figure 5E).
Female nude mice (NCI Athymic NCr-nu/nu) and male C57L mice were purchased from Charles River and The Jackson Laboratory, respectively. Hep3B (8 × 10^6) and Hepa1-6 (1 × 10^7) cells were resuspended in PBS and Matrigel (1:1, vol/vol) and implanted subcutaneously in 6- to 8-week-old mice, and tumor volume was calculated as V = abc × 0.52. For Hep3B tumor studies, once tumors reached 100 to 150 mm^3, mice were randomized into groups to receive daily intraperitoneal injection of either 32-134D or vehicle only (20% PEG-400, 10% Cremophor EL, 10% ethanol in PBS). For Hepa1-6 tumors, mice were randomized to receive treatment once tumors became palpable (tumor eradication experiment) or reached a volume of 200 mm^3 (harvesting of tumors for flow cytometry and analysis of RNA and protein expression). Tumors were harvested 4 hours after the last treatment (see Supplemental Table 6 for reagent sources).
Tumor samples were fixed in 10% formalin in phosphate buffer for 24 hours and placed in PBS the following day for paraffin embedding and sectioning. Anti-CD31 immunohistochemical staining, hematoxylin and eosin counterstaining, and whole-slide scanning were performed by NDB Bio (www.ndbbio.com).
Tumors were homogenized in ice-cold PBS supplemented with 1% Triton X-100 and PIs, centrifuged at 10,000g for 20 minutes to pellet debris, and the supernatant was collected for ELISA using commercial kits (Supplemental Table 6). Optical density was obtained at 450 nm (corrected for readings at 570 nm) using the VICTOR Nivo plate reader. Sample protein concentration was calculated by linear regression from a standard curve.

[1] = Hematologic indices, serum EPO and organ histology in mice; format: in vivo, C57BL/6J mice; conditions: 14 days
Procedure: To investigate the effect of 32-134D on erythropoiesis, C57BL/6J mice (n = 4 per group) received a daily intraperitoneal injection of vehicle or 32-134D at a dose of 40 or 80 mg/kg/day for 14 days.
Figure 8 Effect of 32-134D on red blood cell indices. Mice (n = 4 per group) were treated with vehicle (V) or 32-134D (40 mg/kg/day) for 14 days and peripheral blood was analyzed for red blood cell count (RBC), hemoglobin (Hgb), hematocrit (Hct), reticulocytes, mean corpuscular hemoglobin (MCH), mean corpuscular hemoglobin concentration (MCHC), mean corpuscular volume (MCV), and absolute reticulocyte count (A) or EPO levels in serum (B).
To analyze blood parameters, male C57BL/6J mice were treated with vehicle or 32-134D by daily intraperitoneal injection for 14 days. Blood was collected by cardiac puncture into EDTA-coated tubes for analysis of hematologic indices at the Johns Hopkins Mouse Phenotyping Core. Blood collected into noncoated tubes was allowed to clot for 2 hours at room temperature, centrifuged at 2000g for 20 minutes, and serum samples were subjected to EPO ELISA according to the manufacturer’s instructions (Supplemental Table 6). Organs including heart, liver, kidney, small intestine, colon, lungs, and brain were harvested, fixed in formalin for 24 hours, and embedded in paraffin for histopathological investigation. Hematoxylin and eosin staining was performed by the Johns Hopkins Reference Histology Services.
Supplemental Figure 9. Normal organ histology in mice treated with 32-134D. Mice were administered vehicle or 32-134D (40 or 80 mg/kg) by daily intraperitoneal injection for 14 days and tissue sections from the indicated organs were stained with hematoxylin and eosin. Scale bar = 20 µm.
(1 picture or pasted object on this page, not shown here)

In the case of `Brc1ccc2c(-c3csc(-c4c[nH]c5c(Br)cccc45)n3)c[nH]c2c1` [Compound 32-134D], the “VEGFA, EPO, SDF-1α and SCF protein in tumor lysates” value (Hep3B tumor xenograft; ELISA, P < 0.05) is reported as “significantly decreased expression”, the “tumor mRNA expression of ANGPTL4, EPO, PGF, CD73, PDL1, VEGFA, SDF-1, SCF” value (Hep3B tumor xenograft; RT-qPCR, P < 0.05) is reported as “significant decrease” and the “intratumoral HIF-1β protein levels” value (Hep3B tumor xenograft; immunoblot) is reported as “not affected”. For the same compound, the “intratumoral HIF-1α and HIF-2α protein expression” value (Hep3B tumor xenograft; immunoblot of tumor lysates) was “almost complete loss”, the “CD31+ blood vessel area in tumors” value (Hep3B tumor xenograft; immunohistochemistry, P < 0.05) was “significantly decreased blood vessel area” and the “histology of brain, colon, heart, kidney, liver, lungs, and small intestine” value ([1]; 40 or 80 mg/kg ip) was “no changes”. The “red blood cell count, hemoglobin, hematocrit, reticulocyte count, MCV, MCH, MCHC versus vehicle” value ([1]; 40 or 80 mg/kg/day ip) was “not significantly different” and the “serum EPO levels versus vehicle” value ([1]; ELISA) was “no significant difference”.
